Converted amounts (≈) assume the structure as drawn. Like-named read-outs stand apart in the source and are kept apart here.

One data set concerns the target 5-HT2B (Homo sapiens, UniProt P41595). Briefly: Off-target safety panel, 5-HT2B. Format: binding. The following applies: duplicate, read-out: % Inhibition at 100 μM conc., 5-HT2B. On the procedure: (§1) Potential off-target pharmacology for compound 6 was also evaluated by screening in duplicate against a panel (Bowes, J., et al., Reducing Safety-Related Drug Attrition: The Use of in vitro Pharmacological Profiling. Nat. Rev. Drug Disc. 2012, 11, 909-922) of 44 receptors, enzymes, etc. Of the 44 potential targets, only five were inhibited by >50% at a concentration of 100 μM (Table 7).

Data set [1] concerns Enterococcus faecalis ATCC 29212. Briefly: MIC panel (Laboratory Specialists, Inc.), E. faecalis. It is filed as cell-based. The note with it: ATCC29212, Cmpd. 6, CLSI broth microdilution. On the technique in general: Dilution methods test growth across graded concentrations, often in twofold steps.
Data set [2] deals with Klebsiella pneumoniae LSI-2999. Briefly: MIC panel (Laboratory Specialists, Inc.), K. pneumoniae. It is filed as cell-based. The note with it: LSI2999, Cmpd. 6, CLSI broth microdilution.
The subject of the next data set is USA300 isolate of MRSA. The data set can be described thus: MIC, CLSI broth microdilution, USA300 MRSA. Format: cell-based. The following applies: Staphylococcus aureus; CLSI broth microdilution; ciprofloxacin-resistant MRSA; read-out: MIC USA300.
For data set [3], the system named is S. aureus strain isolated from a cystic fibrosis patient. The data set can be described thus: MIC, CLSI broth microdilution, CF isolate. It is filed as cell-based. The note with it: Staphylococcus aureus; CLSI broth microdilution; read-out: MIC CF isolate.
The next data set deals with Dopamine transporter (Homo sapiens, UniProt Q01959). Briefly: Off-target safety panel, dopamine transporter. Format: binding. The note with it: duplicate, read-out: % Inhibition at 100 μM conc., Dopamine transporter. On the procedure: as §1
Sequence of Dopamine transporter (Q01959 whole entry): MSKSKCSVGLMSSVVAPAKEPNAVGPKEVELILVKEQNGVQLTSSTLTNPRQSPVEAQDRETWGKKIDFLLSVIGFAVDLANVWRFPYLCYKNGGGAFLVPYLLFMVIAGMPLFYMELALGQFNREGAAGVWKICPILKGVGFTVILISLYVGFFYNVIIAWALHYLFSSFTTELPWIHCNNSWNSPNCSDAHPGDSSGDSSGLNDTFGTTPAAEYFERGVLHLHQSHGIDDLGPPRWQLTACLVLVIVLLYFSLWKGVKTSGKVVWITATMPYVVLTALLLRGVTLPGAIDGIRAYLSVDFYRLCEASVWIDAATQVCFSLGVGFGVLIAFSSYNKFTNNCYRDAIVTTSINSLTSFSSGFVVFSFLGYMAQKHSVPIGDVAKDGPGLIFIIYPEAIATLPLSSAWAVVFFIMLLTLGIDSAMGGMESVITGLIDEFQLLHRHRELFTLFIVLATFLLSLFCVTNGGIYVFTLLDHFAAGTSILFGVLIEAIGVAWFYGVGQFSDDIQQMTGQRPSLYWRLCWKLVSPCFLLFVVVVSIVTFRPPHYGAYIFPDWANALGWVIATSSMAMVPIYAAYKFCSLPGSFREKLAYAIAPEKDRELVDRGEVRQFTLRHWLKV
Data set [4] relates to Enterococcus faecium DRL-4193. Briefly: MIC panel (Laboratory Specialists, Inc.), E. faecium DRL-4193. Format: cell-based. The note with it: DRL4193, Cmpd. 6, vancomycin-susceptible strain.
Data set [5] has as its system Streptococcus pneumoniae LSI-4234. Briefly: MIC panel (Laboratory Specialists, Inc.), S. pneumoniae LSI-4234. It is filed as cell-based. The following applies: LSI4234, Cmpd. 6, penicillin-susceptible strain.
Data set [6] has as its system Enterobacter cloacae LSI-2943. The data set can be described thus: MIC panel (Laboratory Specialists, Inc.), E. cloacae. It is filed as cell-based. The following applies: LSI2943, Cmpd. 6, CLSI broth microdilution.
Another data set has as its target T1, CYP2C9 (Homo sapiens, UniProt P11712).
T1 construct: incubated with human liver microsomes (mixed gender, pool of 50 donors, 0.1 mg/mL); from tissue; host or cells: human liver microsomes, pool of 50 donors
Briefly: CYP450 inhibition in human liver microsomes, CYP2C9. Format: in vitro ADME. The following applies: 10 μM. On the procedure: CYP450 inhibition assays was conducted using individual enzyme substrates and inhibitors instead of a cocktail to avoid interferences. CYP450 isoforms tested included the following: CYP1A2, CYP2B6, CYP2C8, CYP2C9, CYP2C19, CYP2D6, and CYP3A4. Each test compound was screened at a final concentration of 10 μM. Each test compound was incubated with human liver microsomes (mixed gender, pool of 50 donors, 0.1 mg/mL), CYP450-selective probe substrates, and co-factors (NADPH, MgCl2) in phosphate buffer (pH 7.4) for 10-30 min in a 96-well plate at 37° C. The reactions were stopped by transferring the reaction mixture to acetonitrile/methanol. Samples were mixed and centrifuged, and the supernatants analyzed by LC-MS/MS to quantify percent inhibition relative to vehicle control.
For orientation: Liver microsomes are vesicles of endoplasmic reticulum, rich in cytochrome P450 enzymes.

Data set [7] deals with Acinetobacter baumannii LSI-2957. The data set can be described thus: MIC panel (Laboratory Specialists, Inc.), A. baumannii. Format: cell-based. The note with it: LSI2957, Cmpd. 6, CLSI broth microdilution.
In data set [8] the test system is Pseudomonas aeruginosa LSI-2946. Briefly: MIC panel (Laboratory Specialists, Inc.), P. aeruginosa. It is filed as cell-based. The note with it: LSI2946, Cmpd. 6, CLSI broth microdilution.
A further data set is described as follows: in vitro. It is filed as in vitro ADME. The following applies: pH 7.4, 10 μM, equilibrium dialysis. On the procedure: In this assay an equilibrium dialysis technique was used to separate unbound test compound from compound bound to proteins. The plasma was spiked with the test compound at 10 μM with a final DMSO concentration of 1%. The dialysate compartment was loaded with phosphate buffered saline (PBS, pH 7.4) and the sample side was loaded with equal volume of the spiked plasma, After incubation at 37° C. for 4 hours, samples were removed from each plasma and buffer chamber; plasma protein was removed by treatment with acetonitrile. Recovered samples were analyzed using LC-MS.
In general terms: In equilibrium dialysis free small molecules cross a membrane that holds back macromolecules.

Data set [9] deals with T2, Kir2.1 Human Potassium Ion Channel (Homo sapiens, UniProt P63252).
T2 construct: expressed in transfected cells
T2 sequence (P63252 1-427): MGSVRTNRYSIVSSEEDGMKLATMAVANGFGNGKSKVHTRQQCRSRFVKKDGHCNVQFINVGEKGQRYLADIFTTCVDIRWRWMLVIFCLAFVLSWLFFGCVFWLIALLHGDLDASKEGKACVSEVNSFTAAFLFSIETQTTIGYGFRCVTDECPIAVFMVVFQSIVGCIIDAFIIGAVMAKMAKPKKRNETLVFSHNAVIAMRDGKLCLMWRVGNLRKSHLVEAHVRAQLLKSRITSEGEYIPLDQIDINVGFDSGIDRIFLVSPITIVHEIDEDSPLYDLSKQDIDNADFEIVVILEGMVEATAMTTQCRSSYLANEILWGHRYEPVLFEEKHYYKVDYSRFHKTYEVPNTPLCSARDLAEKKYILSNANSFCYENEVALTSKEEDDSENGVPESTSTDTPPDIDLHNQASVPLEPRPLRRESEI
The data set can be described thus: Kir2.1 QPatch CiPA assay. The note with it: mean, duplicate. Format: cell-based. The text has this: Early drug discovery programs commonly assess hERG inhibition as the only indicator of potential cardiovascular safety concerns. Researchers have recently recommended a more rigorous evaluation of multiple cardiac ion channels to provide a more comprehensive cardiovascular risk assessment (Fermini, B., et al., A New Perspective in the Field of Cardiac Safety Testing through the Comprehensive In Vitro Proarrhythmia Assay Paradigm. J. Biomolec. Screening 2016, 21, 1-11). Given the promising initial results for 6, further evaluation was undertaken (in duplicate) in a Comprehensive in vitro Proarrhythmia Assay (CiPA) eight assay panel run on the QPatch HT (Sophion, Denmark) automated patch clamp system at three concentrations (3, 30, and 100 μM). All data were filtered for seal quality, seal drop, and current amplitude. A stock solution of the test compound at 30 mM concentration was prepared in DMSO.
The parameters measured were the maximum inward current evoked on stepping to −120 mV from the test pulse. The peak current amplitude was calculated before and after compound addition and the amount of block was assessed by dividing the Test compound current amplitude by the Control current amplitude. Control is the mean hKir2.1 current amplitude collected 15 seconds at the end of the control; Test Compound is the mean hKir2.1 current amplitude peak and end collected in the presence of test compound at each concentration. The positive control was barium chloride.

The mark [10] stands for this setting: read-out: % Inhibition Kir2.1 (end current).
Setting [11] is: read-out: % Inhibition Kir2.1 (peak current).

T1 sequence (P11712 whole entry): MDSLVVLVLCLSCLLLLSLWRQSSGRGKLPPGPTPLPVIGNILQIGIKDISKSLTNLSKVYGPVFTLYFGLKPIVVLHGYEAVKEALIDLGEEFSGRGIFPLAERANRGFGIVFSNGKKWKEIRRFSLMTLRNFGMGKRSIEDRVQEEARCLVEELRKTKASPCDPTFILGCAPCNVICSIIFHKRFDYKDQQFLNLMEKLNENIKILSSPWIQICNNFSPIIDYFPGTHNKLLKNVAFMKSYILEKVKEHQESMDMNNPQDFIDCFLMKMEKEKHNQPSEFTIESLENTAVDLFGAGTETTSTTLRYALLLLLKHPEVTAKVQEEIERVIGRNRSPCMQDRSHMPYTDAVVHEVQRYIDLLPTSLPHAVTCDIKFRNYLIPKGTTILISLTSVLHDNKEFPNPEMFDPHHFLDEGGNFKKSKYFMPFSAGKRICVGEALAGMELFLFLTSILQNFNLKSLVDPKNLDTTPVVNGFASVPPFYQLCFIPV
Sequence of 5-HT2B (P41595 whole entry, species assumed): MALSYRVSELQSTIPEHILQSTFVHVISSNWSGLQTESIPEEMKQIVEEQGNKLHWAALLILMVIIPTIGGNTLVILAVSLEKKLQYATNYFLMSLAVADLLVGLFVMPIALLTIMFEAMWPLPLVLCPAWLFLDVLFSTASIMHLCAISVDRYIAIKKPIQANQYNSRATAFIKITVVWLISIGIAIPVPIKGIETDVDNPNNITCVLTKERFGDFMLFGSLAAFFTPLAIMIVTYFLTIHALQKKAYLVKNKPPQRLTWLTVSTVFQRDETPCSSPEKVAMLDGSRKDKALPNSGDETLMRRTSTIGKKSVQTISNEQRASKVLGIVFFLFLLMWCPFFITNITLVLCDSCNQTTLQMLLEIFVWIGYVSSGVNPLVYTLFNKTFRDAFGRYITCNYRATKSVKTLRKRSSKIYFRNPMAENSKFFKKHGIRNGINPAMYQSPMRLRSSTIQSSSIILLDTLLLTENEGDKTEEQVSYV

Turning to `COc1ccc2ncc(F)c(CC[C@@]3(O)CO[C@@H]4[C@@H](NCc5cc6c(cn5)OCCO6)CO[C@@H]43)c2n1` [Compound 6, (3R, 3aS,6S,6aR)-6-(((2,3-dihydro-[1,4]dioxino[2,36-c]pyridin-7-yl)methyl)amnino)-3-(2-(3-fluoro-6-methoxy-1,5-naphthyridin-4-yl)ethyl)hexahydrofuro[3,2-b]furan-3-ol], the inhibition at 100 µM on 5-HT2B turned out to be 95%; at Dopamine transporter, 96%; in data set [9] (setting [10]), 31.9%; in data set [9] (setting [11]) it was 29.7%. The MIC in data set [1] is 2 µg/mL (≈ 4.01 µM); in data set [2], 128 µg/mL (≈ 257 µM); in the data set with USA300 isolate of MRSA it was 2 µg/mL (≈ 4.01 µM); in data set [3], 2 µg/mL (≈ 4.01 µM); in [4], 2 µg/mL (≈ 4.01 µM); in data set [5], at most 0.12 µg/mL. Further, the values for the minimum inhibitory concentration (MIC) in [6], in data set [7] and in data set [8] were 16 µg/mL (≈ 32.1 µM), at most 0.12 µg/mL and at most 0.12 µg/mL, respectively. For the same compound, the CYP2C9 inhibition result on CYP2C9 is listed as “Less than 50%”. Moreover, the fraction unbound in the data set “in vitro” (human plasma) stood at 0.138; in the data set “in vitro” (mouse plasma), 0.047. The inhibition at 3 µM in data set [9] (setting [10]) was determined as 8.3%; in data set [9] (setting [11]), 6.9%. In addition, the inhibition at 30 µM in data set [9] (setting [10]) came to 19.6%; in [9] (setting [11]), 18%.

The inhibition is the percentage by which the read-out fell short of the control. As usually defined, the MIC is the lowest concentration that inhibits growth of the organism. One may read the fraction unbound as the share of the substance not bound to proteins or other matrix. A lower fraction unbound goes with extensive binding.
